The structures appear in SMILES notation. Where “and” joins values, the source holds several entries; their conditions need not be identical. Equal entries are not always repeated.

Assay [1] addresses Muscarinic acetylcholine receptor M1 (Homo sapiens) (UniProt P11229). Nature of the assay: Displacement of [3H]NMS from human mAChR1 receptor expressed in F1pIn CHO cells after 60 mins by scintillation counting analysis. (In a radioligand displacement assay an active substance lowers the binding of a labelled ligand.)
For assay [2] the target is unchanged. In words: Partial agonist activity at human mAChR1 receptor expressed in F1pIn CHO cells assessed as induction of intracellular calcium mobilization. (Calcium assays in cells follow changes in intracellular calcium, usually with a dye or a luminescent sensor.)
Assay [3] shares this target. In words: Agonist activity at human mAChR1 receptor expressed in F1pIn CHO cells assessed as induction of intracellular calcium mobilization.

Chain of Muscarinic acetylcholine receptor M1 (Homo sapiens) (P11229 whole entry, looked up): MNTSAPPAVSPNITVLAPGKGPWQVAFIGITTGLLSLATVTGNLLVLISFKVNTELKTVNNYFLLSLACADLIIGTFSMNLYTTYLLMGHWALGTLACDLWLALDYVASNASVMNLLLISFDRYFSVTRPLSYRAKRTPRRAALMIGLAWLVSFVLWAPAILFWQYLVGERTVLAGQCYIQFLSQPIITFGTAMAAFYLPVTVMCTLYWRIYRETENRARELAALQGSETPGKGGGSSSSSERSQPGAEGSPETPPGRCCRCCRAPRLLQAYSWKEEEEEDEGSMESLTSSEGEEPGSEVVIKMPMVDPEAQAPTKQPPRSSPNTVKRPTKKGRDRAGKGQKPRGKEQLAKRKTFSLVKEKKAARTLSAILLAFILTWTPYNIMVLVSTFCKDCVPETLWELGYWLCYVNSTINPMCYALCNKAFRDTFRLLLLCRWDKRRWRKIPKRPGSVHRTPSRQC

As to `O=C1COc2ccccc2N1CCCN1CCN(c2cccc3[nH]c(=O)oc23)CC1`, in assay [1], the IC50 (in general, the concentration needed to halve the response being measured) was 4.27 µM and 4.26 µM. With `O=C1COc2ccccc2N1CCCN1CCN(c2cccc(Cl)c2Cl)CC1`, the IC50 in assay [1] was 1.86 µM and 1.87 µM.

For the compound `O=C1COc2ccccc2N1CCCN1CCN(c2nsc3ccccc23)CC1`, the IC50 in assay [1] was 4.19 µM and 4.17 µM. Also, the EC50 (usually the concentration giving half of the maximal effect) in assay [2] was 1.04 µM and 1.05 µM. Take `O=C1COc2ccccc2N1CCCN1CCC(c2noc3cc(F)ccc23)CC1`: the IC50 in assay [1] is 3.25 µM and 3.24 µM. With `COc1ccccc1N1CCN(CCCN2C(=O)COc3ccccc32)CC1`, the IC50 in assay [1] was 5.18 µM and 5.13 µM. With `O=C(Cc1ccccc1)NC1CCN(CCCN2C(=O)COc3ccccc32)CC1` [N-{1-[3-(3-Oxo-2,3-dihydrobenzo[1,4]oxazin-4-yl)propyl]-piperidin-4-yl}-2-phenylacetamide], the EC50 in assay [3] came out at 0.129 µM. Further, in assay [1], the IC50 is 8.53 µM and 8.51 µM.

(Values after BindingDB's records for doi:10.1021/jm5013243 (Monash University (Parkville Campus), 2015).)
